Laboratory results published in patent EP1285971B1, “Methods for the phenotypic and genotypic assessment of the drug sensitivity of HIV integrase variants” (Tibotec Pharmaceuticals Ltd., priority 2001, dated 2003).

Tested on: pHXB2D control
Test: Antiviral experiment with control clone, transfected directly without recombination
Assay type: cell-based, HIV
Details: no recombination; for fold change: fold change in EC50
Experimental: Recombinant virus was produced by co-transfection by electroporation of the SmaI-linearized IN-deletion construct and the integrase amplicon into MT4 cells or MT4 cells equipped with an LTR driven reporter gene construct. Production of recombinant virus was evaluated by scoring the cytopathogenic effect (CPE) that is induced by HIV-infection of MT4 cells or by the LTR-driven reporter signal induced by HIV infection in MT4 reporter cells. Green fluorescent protein was used as the reporter signal. Viruses are harvested and titrated at maximum CPE. For recombination the deletion construct pSV40HXB2D-ΔIN was used. Recombination experiments were performed with amplicon from wildtype HIV IIIB and NL4.3, and patient sample 146514 generated by both primer sets. For each recombination 2 µg amplicon was co-transfected with 10 µg SmaI-digested pSV40HXB2D-ΔIN by electroporation into MT4-LTR-EGFP cells. Virus stocks were titrated and tested in an antiviral experiment on a reference panel including nucleoside reverse transcriptase inhibitors (NRTI), non- nucleoside reverse transcriptase inhibitors (NNRTI), protein inhibitor (PR), entry and integrase (IN) inhibitors (Table 2). Recombination was checked by nucleic acid sequence analysis using protocols known to the person skilled in the art. Sequencing primers which can be used are In_seq1F (SEQ ID NO 17), In_seq2F (SEQ ID NO 18), In_seq3F (SEQ ID NO 19), IN_seq1R (SEQ ID NO 20), IN_seq2R (SEQ ID NO 21), and IN_seq3R (SEQ ID NO 22). The recombinant virus was evaluated in an anti-viral assay with a panel of reference compounds including nucleoside RT inhibitors (NRTI) Zidovudine (AZT) Lamivudine (3TC), Didanosine (DDI), non-nucleoside RT inhibitors (NNRTI) Nevirapine (NVP), 4-[[6-amino-5-bromo-2-[(4-cyanophenyl)amino]-4-pyrimidinyl]oxy]-3,5-dimethyl-benzonitrile also referred to as compound 1, 4-[[6-amino-5-bromo-2-[(4-cyanophenyl)amino]-4-pyrimidinyl]oxy]-3,5-dimethyl-Benzonitrile, also referred to as compound 2 protease inhibitors (PR) Saquinavir (SQV), Amprenavir (APV), Indinavir (IDV), [[…]-3-[[(4-aminophenyl)sulfonyl](2-methylpropyl)amino]-2-hydroxy-1-(phenylmethyl)-propyl]-, (3R,3aS,6aR)-hexahydrofuro[2,3-b]furan-3-yl ester carbamic acid also referred to as compound 3, entry-inhibitors (Entry)(AMD3100, DS5000, ATA), and integrase inhibitor (IN) 2-(1-methylethyloxy)-α,γ dioxo-5-(phenylmethyl)-benzenebutanoic acid also referred to as compound 4. […] AVE means antiviral experiment. Type means the type of inhibitor investigated. The fold change is the fold change in EC50. WT III B means that a portion of the wild type IIIB strain has been amplified and used in the antiviral experiment, including transfection and generation of recombinant virus. NL 4-3 means the integrase gene of this laboratory strain has been amplified and subsequently used for the antiviral experiment. […] No recombination has been effected using this HIV clone. pHXB2D has been used directly for transfection and antiviral experiment. Primer set 3 consist of outer primers 5'EGINT3 (SEQ ID NO 4) and 3'EGINT10 (SEQ ID NO 11), and inner primers 5'EGINT4 (SEQ ID NO 5) and 3'EGINT6 (SEQ ID NO 7). Primer set 4 consist of outer primers 5'EGINT3 (SEQ ID NO 4) and 3'EGINT10 (SEQ ID NO 11), and inner primers 5'EGINT5 […] and 3'EGINT6 (SEQ ID NO 7). Other suitable integrase inhibitors include L-731,988, diketo-acids and S-1360.

[1] = Human immunodeficiency virus 1, AVE 6, pHXB2D control

Compound | fold change (AVE 6, pHXB2D control) | EC50 [1] [nM] | EC50 (AVE 6, pHXB2D control) [nM]
c1cc(CN2CCCNCCNCCCNCC2)ccc1CN1CCCNCCNCCCNCC1 [AMD3100] | 1,0 | 55.6 | –
CC(C)CN(C[C@@H](O)[C@H](Cc1ccccc1)NC(=O)O[C@H]1CCOC1)S(=O)(=O)c1ccc(N)cc1 [APV, Amprenavir] | 1,0 | 83.8 | –
O=C(O)C1=CC(=C(c2ccc(O)c(C(=O)O)c2)c2ccc(O)c(C(=O)O)c2)C=CC1=O [ATA] | 1,0 | – | 2070
Cc1cn([C@H]2C[C@H](N=[N+]=[N-])[C@@H](CO)O2)c(=O)[nH]c1=O [AZT, Zidovudine] | 1,0 | 168 | –
Cc1cc(C#N)cc(C)c1Oc1nc(Nc2ccc(C#N)cc2)nc(N)c1Br [Compound 1, 4-[[6-amino-5-bromo-2-[(4-cyanophenyl)amino]-4-pyrimidinyl]oxy]-3,5-dimethyl-benzonitrile] | 1,0 | – | 1
Cc1cc(C#N)cc(C)c1Oc1nc(Nc2ccc(C#N)cc2)nc(N)c1Br [Compound 2, 4-[[6-amino-5-bromo-2-[(4-cyanophenyl)amino]-4-pyrimidinyl]oxy]-3,5-dimethyl-Benzonitrile] | 1,0 | – | 3.1
Nc1ccn([C@@H]2CS[C@H](CO)O2)c(=O)n1 [Compound 3TC, Lamivudine] | 1,0 | 1380 | –
CC(C)Oc1ccc(Cc2ccccc2)cc1C(=O)CC(=O)C(=O)O [Compound 4, 2-(1-methylethyloxy)-α,γ dioxo-5-(phenylmethyl)-benzenebutanoic acid] | 1,0 | 276 | –
O=c1[nH]cnc2c1ncn2[C@H]1CC[C@@H](CO)O1 [DDI, Didanosine] | 1,0 | 4820 | –
CC(C)(C)NC(=O)[C@@H]1CN(Cc2cccnc2)CCN1C[C@@H](O)C[C@@H](Cc1ccccc1)C(=O)N[C@H]1c2ccccc2C[C@H]1O [IDV, Indinavir] | 1,0 | 43.9 | –
Cc1ccnc2c1NC(=O)c1cccnc1N2C1CC1 [NVP, Nevirapine] | 1,0 | 86.3 | –
CC(C)c1nc(CN(C)C(=O)N[C@H](C(=O)N[C@@H](Cc2ccccc2)C[C@H](O)[C@H](Cc2ccccc2)NC(=O)OCc2cncs2)C(C)C)cs1 [RTV, ritonavir] | 1,0 | 148 | –
CC(C)(C)NC(=O)[C@@H]1C[C@@H]2CCCC[C@@H]2CN1C[C@@H](O)[C@H](Cc1ccccc1)NC(=O)[C@H](CC(N)=O)NC(=O)c1ccc2ccccc2n1 [SQV, Saquinavir] | 1,0 | 19.8 | –
